Experimental data published in ChEMBL document CHEMBL5154705, “Discovery and mechanistic study of thiazole-4-acylsulfonamide derivatives as potent and orally active ChemR23 inhibitors with a long-acting effect in cynomolgus monkeys” (Bioorg Med Chem, 2022).

How the values were obtained:
Type in all cases: ADME, organism-based, Macaca fascicularis
[1] = Tmax in cynomolgus monkey at 0.3 mg/kg, po; details: in vivo
[2] = Tmax in cynomolgus monkey at 0.3 to 1 mg/kg, po; details: in vivo, dose 0.3-1 mg/kg
[3] = Cmax in cynomolgus monkey at 0.3 to 1 mg/kg, po; set-up: route po; details: in vivo, dose 0.3-1 mg/kg
[4] = Drug concentration in cynomolgus monkey plasma at 1 mg/kg, po after 8 hrs
[5] = Drug concentration in cynomolgus monkey plasma at 0.3 mg/kg, po after 8 hrs
[6] = Cmax in cynomolgus monkey at 0.3 mg/kg, po; set-up: dose 0.3 mg/kg, route po; details: in vivo
[7] = AUC(0 to infinity) in cynomolgus monkey at 0.3 to 1 mg/kg, po; set-up: route po; details: in vivo, dose 0.3-1 mg/kg
[8] = Drug concentration in plasma of cynomolgus monkey at 30 mg/kg, po after 6 hrs
[9] = Drug concentration in plasma of cynomolgus monkey at 30 mg/kg, po after 8 hrs
[10] = MRT in cynomolgus monkey at 0.3 to 1 mg/kg, po; details: in vivo, dose 0.3-1 mg/kg
[11] = Half life in cynomolgus monkey at 0.3 to 1 mg/kg, po; details: in vivo, dose 0.3-1 mg/kg
[12] = Drug concentration in plasma of cynomolgus monkey at 30 mg/kg, po after 4 hrs
[13] = MRT in cynomolgus monkey at 0.3 mg/kg, po; details: in vivo
[14] = Half life in cynomolgus monkey at 0.3 mg/kg, po; details: in vivo
[15] = AUC(0 to infinity) in cynomolgus monkey at 0.3 mg/kg, po; set-up: time infinity, dose 0.3 mg/kg, route po; details: in vivo

**Q.** With `Cc1ccc(-c2nc(=O)o[nH]2)c(-c2ccc([C@@H](C)N(CC3CC3)c3nc(C(=O)NS(=O)(=O)C4CC4)c(C4CC4)s3)cc2)c1` as the compound, how does the Tmax [1] read?
**A.** 3.3 h

**Q.** And the Tmax [2]?
**A.** 2.7 h

**Q.** What about the Cmax [3] of the same compound?
**A.** 6960 ng/mL

**Q.** What about the concentration at 8 h [4] of the same compound?
**A.** 2580 ng/mL

**Q.** What about the concentration at 8 h [5] of the same compound?
**A.** 403 ng/mL

**Q.** And the Cmax [6]?
**A.** 1370 ng/mL

**Q.** And the AUC(0-inf) [7]?
**A.** 53700 ng·h/mL

**Q.** What about the concentration at 6 h [8] of the same compound?
**A.** 233 µM

**Q.** What about the concentration at 8 h [9] of the same compound?
**A.** 177 µM

**Q.** What about the MRT [10] of the same compound?
**A.** 6 h

**Q.** And the half-life [11]?
**A.** 3.1 h

**Q.** And the concentration at 4 h [12]?
**A.** 332 µM

**Q.** And the MRT [13]?
**A.** 5.4 h

**Q.** What about the half-life [14] of the same compound?
**A.** 3.3 h

**Q.** And the AUC(0-inf) [15]?
**A.** 10200 ng·h/mL
